Molecules are shown by their SMILES. Converted amounts (≈) assume the structure as drawn.

For orientation: MIC means the smallest concentration in the dilution series that meets the test's criterion for growth inhibition.

What all share (type): functional
Experiment [1] deals with Staphylococcus aureus. The experiment can be described thus: Antibacterial activity against Staphylococcus aureus […] after 16 hrs by agar dilution method. For orientation: Agar dilution tests growth on a series of plates holding different concentrations.
In experiment [2] the test system is Staphylococcus aureus. The experiment can be described thus: Antibacterial activity against methicillin-resistant Staphylococcus aureus after 16 hrs by agar dilution method.
The subject of experiment [3] is Staphylococcus epidermidis. The experiment can be described thus: Antibacterial activity against methicillin-resistant Staphylococcus epidermidis after 16 hrs by agar dilution method.
The test system of experiment [4] is Streptococcus pneumoniae. Put plainly: Antibacterial activity against penicillin-resistant Streptococcus pneumoniae after 16 hrs by agar dilution method.
For experiment [5], the system named is Staphylococcus aureus. Put plainly: Antibacterial activity against methicillin-sensitive Staphylococcus aureus after 16 hrs by agar dilution method.
The subject of experiment [6] is Staphylococcus epidermidis. Put plainly: Antibacterial activity against methicillin-sensitive Staphylococcus epidermidis after 16 hrs by agar dilution method.

Regarding `C=C[C@]1(C)C[C@@H](OC(=O)CSc2cccs2)[C@]2(C)[C@H](C)CC[C@]3(CCC(=O)[C@H]32)[C@@H](C)[C@@H]1O`, the MIC amounted to 0.5 µg/mL (≈ 1.05 µM) in experiment [1]; 0.5 µg/mL (≈ 1.05 µM) in experiment [2]; 0.25 µg/mL (≈ 0.524 µM) in experiment [3]; 0.125 µg/mL (≈ 0.262 µM) in experiment [4]; 0.5 µg/mL (≈ 1.05 µM) in experiment [5]; 0.25 µg/mL (≈ 0.524 µM) in experiment [6].
In the case of `C=C[C@]1(C)C[C@@H](OC(=O)CSc2nccs2)[C@]2(C)[C@H](C)CC[C@]3(CCC(=O)[C@H]32)[C@@H](C)[C@@H]1O`, the minimal inhibitory concentration (MIC) in experiment [1] was 0.5 µg/mL (≈ 1.05 µM); in experiment [2], 0.5 µg/mL (≈ 1.05 µM); in experiment [3], 0.25 µg/mL (≈ 0.523 µM); in experiment [4], 0.5 µg/mL (≈ 1.05 µM); in experiment [5], 0.5 µg/mL (≈ 1.05 µM); in experiment [6], 0.25 µg/mL (≈ 0.523 µM).
Turning to `C=C[C@]1(C)C[C@@H](OC(=O)CSc2cnccn2)[C@]2(C)[C@H](C)CC[C@]3(CCC(=O)[C@H]32)[C@@H](C)[C@@H]1O`, the MIC was determined as 0.25 µg/mL (≈ 0.529 µM) in experiment [1]; 0.125 µg/mL (≈ 0.264 µM) in experiment [2]; 0.125 µg/mL (≈ 0.264 µM) in experiment [3]; 0.125 µg/mL (≈ 0.264 µM) in experiment [4]; 0.125 µg/mL (≈ 0.264 µM) in experiment [5]; 0.125 µg/mL (≈ 0.264 µM) in experiment [6].
For the molecule `C=C[C@]1(C)C[C@@H](OC(=O)CSc2ncccn2)[C@]2(C)[C@H](C)CC[C@]3(CCC(=O)[C@H]32)[C@@H](C)[C@@H]1O`, the MIC in experiment [1] amounted to 0.125 µg/mL (≈ 0.264 µM); in experiment [2] it was 0.063 µg/mL (≈ 0.133 µM); in experiment [3], 0.063 µg/mL (≈ 0.133 µM); in experiment [4], 0.125 µg/mL (≈ 0.264 µM); in experiment [5], 0.125 µg/mL (≈ 0.264 µM); in experiment [6], 0.125 µg/mL (≈ 0.264 µM).
As to `C=C[C@]1(C)C[C@@H](OC(=O)CSc2cccnn2)[C@]2(C)[C@H](C)CC[C@]3(CCC(=O)[C@H]32)[C@@H](C)[C@@H]1O`, the minimum inhibitory concentration (MIC) came out at 0.25 µg/mL (≈ 0.529 µM) in experiment [1]; 0.25 µg/mL (≈ 0.529 µM) in experiment [2]; 0.063 µg/mL (≈ 0.133 µM) in experiment [3]; 0.125 µg/mL (≈ 0.264 µM) in experiment [4]; 0.125 µg/mL (≈ 0.264 µM) in experiment [5]; 0.063 µg/mL (≈ 0.133 µM) in experiment [6].
Consider `C=C[C@]1(C)C[C@@H](OC(=O)CSc2cccnc2)[C@]2(C)[C@H](C)CC[C@]3(CCC(=O)[C@H]32)[C@@H](C)[C@@H]1O`, for which the MIC amounted to 0.25 µg/mL (≈ 0.53 µM) in experiment [1]; 0.125 µg/mL (≈ 0.265 µM) in experiment [2]; 0.25 µg/mL (≈ 0.53 µM) in experiment [3]; 0.125 µg/mL (≈ 0.265 µM) in experiment [4]; 0.125 µg/mL (≈ 0.265 µM) in experiment [5]; 0.125 µg/mL (≈ 0.265 µM) in experiment [6].
Regarding `C=C[C@]1(C)C[C@@H](OC(=O)CSc2ccncc2)[C@]2(C)[C@H](C)CC[C@]3(CCC(=O)[C@H]32)[C@@H](C)[C@@H]1O`, the MIC was 0.031 µg/mL (≈ 0.0657 µM) in experiment [1]; 0.063 µg/mL (≈ 0.134 µM) in experiment [2]; 0.063 µg/mL (≈ 0.134 µM) in experiment [3]; 0.063 µg/mL (≈ 0.134 µM) in experiment [4]; 0.063 µg/mL (≈ 0.134 µM) in experiment [5]; 0.063 µg/mL (≈ 0.134 µM) in experiment [6].
On to `C=C[C@]1(C)C[C@@H](OC(=O)CSc2cncc(C(=O)OC)c2)[C@]2(C)[C@H](C)CC[C@]3(CCC(=O)[C@H]32)[C@@H](C)[C@@H]1O`, for which the minimum inhibitory concentration (MIC) in experiment [1] is 1 µg/mL (≈ 1.89 µM); in experiment [2], 0.125 µg/mL (≈ 0.236 µM); in experiment [3], 0.25 µg/mL (≈ 0.472 µM); in experiment [4] it was 0.25 µg/mL (≈ 0.472 µM); in experiment [5], 1 µg/mL (≈ 1.89 µM); in experiment [6] it was 1 µg/mL (≈ 1.89 µM).
For `C=C[C@]1(C)C[C@@H](OC(=O)CSc2cncc(OC)c2)[C@]2(C)[C@H](C)CC[C@]3(CCC(=O)[C@H]32)[C@@H](C)[C@@H]1O`, the minimal inhibitory concentration (MIC) in experiment [1] was 1 µg/mL (≈ 1.99 µM); in experiment [2], 0.125 µg/mL (≈ 0.249 µM); in experiment [3], 0.125 µg/mL (≈ 0.249 µM); in experiment [4] it was 0.125 µg/mL (≈ 0.249 µM); in experiment [5] it was 0.125 µg/mL (≈ 0.249 µM); in experiment [6], 2 µg/mL (≈ 3.99 µM).
Consider `C=C[C@]1(C)C[C@@H](OC(=O)CSc2cncc(F)c2)[C@]2(C)[C@H](C)CC[C@]3(CCC(=O)[C@H]32)[C@@H](C)[C@@H]1O`, for which the MIC in experiment [1] stood at 0.5 µg/mL (≈ 1.02 µM); in experiment [2], 0.25 µg/mL (≈ 0.511 µM); in experiment [3], 0.25 µg/mL (≈ 0.511 µM); in experiment [4], 0.25 µg/mL (≈ 0.511 µM); in experiment [5], 0.25 µg/mL (≈ 0.511 µM); in experiment [6], 0.125 µg/mL (≈ 0.255 µM).
With `C=C[C@]1(C)C[C@@H](OC(=O)CSc2ccc(CO)nc2)[C@]2(C)[C@H](C)CC[C@]3(CCC(=O)[C@H]32)[C@@H](C)[C@@H]1O`, the MIC was found to be 0.5 µg/mL (≈ 0.997 µM) in experiment [1]; 0.031 µg/mL (≈ 0.0618 µM) in experiment [2]; 0.031 µg/mL (≈ 0.0618 µM) in experiment [3]; 0.063 µg/mL (≈ 0.126 µM) in experiment [4]; 0.063 µg/mL (≈ 0.126 µM) in experiment [5]; 0.25 µg/mL (≈ 0.498 µM) in experiment [6].
Turning to `C=C[C@]1(C)C[C@@H](OC(=O)CSc2cncc(O)c2)[C@]2(C)[C@H](C)CC[C@]3(CCC(=O)[C@H]32)[C@@H](C)[C@@H]1O`, the minimal inhibitory concentration (MIC) in experiment [1] turned out to be 0.125 µg/mL (≈ 0.256 µM); in experiment [2] it was 0.063 µg/mL (≈ 0.129 µM); in experiment [3], 0.063 µg/mL (≈ 0.129 µM); in experiment [4], 0.063 µg/mL (≈ 0.129 µM); in experiment [5] it was 0.063 µg/mL (≈ 0.129 µM); in experiment [6] it was 0.063 µg/mL (≈ 0.129 µM).
Regarding `C=C[C@]1(C)C[C@@H](OC(=O)CSc2ccc(N)nc2)[C@]2(C)[C@H](C)CC[C@]3(CCC(=O)[C@H]32)[C@@H](C)[C@@H]1O`, the MIC stood at 0.125 µg/mL (≈ 0.257 µM) in experiment [1]; 0.063 µg/mL (≈ 0.129 µM) in experiment [2]; 0.063 µg/mL (≈ 0.129 µM) in experiment [3]; 0.063 µg/mL (≈ 0.129 µM) in experiment [4]; 0.125 µg/mL (≈ 0.257 µM) in experiment [5]; 0.5 µg/mL (≈ 1.03 µM) in experiment [6].
As to `C=C[C@]1(C)C[C@@H](OC(=O)CSc2cncc(/C=N/O)c2)[C@]2(C)[C@H](C)CC[C@]3(CCC(=O)[C@H]32)[C@@H](C)[C@@H]1O`, the MIC in experiment [1], in experiment [2], in experiment [3], in experiment [4], in experiment [5] and in experiment [6] was 0.063 µg/mL (≈ 0.122 µM) each time.
As to `C=C[C@]1(C)C[C@@H](OC(=O)CSc2cncc(/C=N/N)c2)[C@]2(C)[C@H](C)CC[C@]3(CCC(=O)[C@H]32)[C@@H](C)[C@@H]1O`, the minimal inhibitory concentration (MIC) in experiment [1], in experiment [2], in experiment [3], in experiment [4], in experiment [5] and in experiment [6] was 0.25 µg/mL (≈ 0.487 µM) each time.
With `C=C[C@]1(C)C[C@@H](OC(=O)CSc2cncc(/C=N/OC)c2)[C@]2(C)[C@H](C)CC[C@]3(CCC(=O)[C@H]32)[C@@H](C)[C@@H]1O`, the MIC in experiment [1] was determined as 0.125 µg/mL (≈ 0.236 µM); in experiment [2], 0.25 µg/mL (≈ 0.473 µM); in experiment [3], 0.25 µg/mL (≈ 0.473 µM); in experiment [4], 0.5 µg/mL (≈ 0.946 µM); in experiment [5], 0.125 µg/mL (≈ 0.236 µM); in experiment [6], 0.25 µg/mL (≈ 0.473 µM).
With `C=C[C@]1(C)C[C@@H](OC(=O)CSc2cncc(/C=N/OCC)c2)[C@]2(C)[C@H](C)CC[C@]3(CCC(=O)[C@H]32)[C@@H](C)[C@@H]1O`, the MIC in experiment [1], in experiment [2], in experiment [3], in experiment [4], in experiment [5] and in experiment [6] was 1 µg/mL (≈ 1.84 µM) throughout.
With `C=C[C@]1(C)C[C@@H](OC(=O)CSc2ccc([N+](=O)[O-])cn2)[C@]2(C)[C@H](C)CC[C@]3(CCC(=O)[C@H]32)[C@@H](C)[C@@H]1O`, the minimum inhibitory concentration (MIC) in experiment [1] amounted to 1 µg/mL (≈ 1.94 µM); in experiment [2], 0.5 µg/mL (≈ 0.968 µM); in experiment [3], 0.25 µg/mL (≈ 0.484 µM); in experiment [4], 0.5 µg/mL (≈ 0.968 µM); in experiment [5], 0.25 µg/mL (≈ 0.484 µM); in experiment [6], 0.25 µg/mL (≈ 0.484 µM).
Take `C=C[C@]1(C)C[C@@H](OC(=O)CSc2ncccc2[N+](=O)[O-])[C@]2(C)[C@H](C)CC[C@]3(CCC(=O)[C@H]32)[C@@H](C)[C@@H]1O`: the minimum inhibitory concentration (MIC) was found to be 0.125 µg/mL (≈ 0.242 µM) in experiment [1]; 0.063 µg/mL (≈ 0.122 µM) in experiment [2]; 0.063 µg/mL (≈ 0.122 µM) in experiment [3]; 0.125 µg/mL (≈ 0.242 µM) in experiment [4]; 0.125 µg/mL (≈ 0.242 µM) in experiment [5]; 0.125 µg/mL (≈ 0.242 µM) in experiment [6].

For the origin of these results see ChEMBL document CHEMBL3286253, “Design, synthesis, and structure-activity relationship studies of novel thioether pleuromutilin derivatives as potent antibacterial agents” (J Med Chem, 2014).
